In ChEMBL document CHEMBL1124830, “Synthesis, brain uptake, and pharmacological properties of a glyceryl lipid containing GABA and the GABA-T inhibitor gamma-vinyl-GABA” (J Med Chem, 1990):

Legend:
Mus musculus [1] = assay: Concentration of brain in mice after sc administration at 33 mg/kg; assay type: functional, organism-based; parameters: dose 33 mg/kg
Mus musculus [2] = species: Mus musculus; assay: Dose required to produce a 50% reduction in general motor activity after injection in mice; assay type: functional
[3] = Brain penetration index calculated as ([Brain]/[Liver])x100 @ 5 min after sc administration in mice at 33 mg/kg; assay type: functional; details: route subcutaneous
Rattus norvegicus = species: Rattus norvegicus; assay: Inhibitory concentration that suppress the CA1 population spike in rat hippocampus slices; assay type: functional, organism-based
Mus musculus [4] = assay: Concentration of liver in mice after sc administration at 33 mg/kg; assay type: functional, organism-based; parameters: dose 33 mg/kg
[5] = Partition coefficient of the compound; assay type: ADME; details: octanol/water
Mus musculus [6] = species: Mus musculus; details: Liver
Mus musculus [7] = species: Mus musculus; details: 3-39 mg/kg
[8] = Brain penetration index calculated as ([Brain]/[Liver])x100 @ 5 min after sc administration in mice at 3-39 mg/kg; assay type: functional

SMILES | Concentration (nM (g of tissue)-1) (Mus musculus [1]) | Dose (Mus musculus [2]) [µM/kg] | BPI [3] | IC50 (Rattus norvegicus) [µM] | Concentration (nM (g of tissue)-1) (Mus musculus [4]) | Partition coefficient [5] | Concentration (nM (g of tissue)-1) (Mus musculus [6]) | Concentration (nM (g of tissue)-1) (Mus musculus [7]) | BPI [8]
C=CC(N)CCC(=O)OCC(COC(=O)CCCCCCC/C=C\C/C=C\C/C=C\CC)OC(=O)CCCN (stereo unspecified) | 8.34 | 25 | 97 | 800 | 8.94 | 1.76 |  |  | 
NCCCC(=O)O [GAMMA-AMINOBUTYRIC ACID] |  |  |  |  |  | 0.004 | 4.17 | 0.04 | 1
C=CC(N)CCC(=O)O (stereo unspecified) [VIGABATRIN] |  | 9000 |  |  |  |  |  |  | 
